Counter-ions that a name gives are not always drawn.

Usually melting point stands for the temperature, or range, at which the solid turns liquid. `c1ccc2oc(-c3ccc(C45CCCN(CCC4)C5)cn3)cc2c1` displayed a melting point of 152 to 154 °C. The same measure for `c1ccc2cc(-c3ccc(C45CCCN(CCC4)C5)cn3)ccc2c1`: 163 to 165 °C. `Fc1ncccc1-c1ccc(C23CCN(CC2)C3)cn1` had a melting point of 116 to 117 °C. `Fc1ccc(-c2ccc(C34CCCN(CCC3)C4)cn2)cn1` gave a melting point of 121 to 122 °C. Turning to `c1cc(-c2ccc(C34CCCN(CCC3)C4)cn2)c2cccnc2c1`, the melting point lay in the range of 147 to 149 °C.

In the case of `Fc1cc(-c2ccc(C34CCCN(CCC3)C4)cn2)ccc1-c1ccccc1`, the melting point was determined as 144 °C.

`CC(=O)c1cccc(-c2ccc(C34CCN(CC3)C4)cn2)c1`: the melting point lay in the range of 95 to 98 °C.

`Cc1ccc(-c2ccc(C34CCN(CC3)C4)cn2)cc1` registered a melting point of 134 to 136 °C. In turn, `Fc1cc(-c2ccc(C34CCN(CC3)C4)cn2)ccc1-c1ccccc1` came in with a melting point of 153 to 155 °C. As to `c1cc(-c2ccc(C34CCN(CC3)C4)cn2)ccn1`, the melting point lay within 254 to 256 °C. For the compound `c1cc(-c2ccc(C34CCN(CC3)C4)cn2)c2cccnc2c1`, the melting point fell in the range of 129 to 131 °C. As to `COc1cccc(-c2ccc(C34CCN(CC3)C4)cn2)c1`, the melting point lay within 87 to 89 °C. To `Fc1ccc(-c2ccc(C34CCN(CC3)C4)cn2)cc1F` belongs 85 to 87 °C; to `c1ccc2sc(-c3ccc(C45CCN(CC4)C5)cn3)cc2c1`, 202 to 203 °C; to `Fc1cccc(-c2ccc(C34CCCN(CCC3)C4)cn2)c1`, 102 to 104 °C.

As to `c1cc(-c2ccc(C34CCN(CC3)C4)cn2)co1`, the melting point is 279 to 281 °C.

Turning to `c1ccc2c(c1)oc1c(-c3ccc(C45CCN(CC4)C5)cn3)cccc12`, the melting point was in the range of 158 to 160 °C.

As for `c1ccc2ncc(-c3ccc(C45CCN(CC4)C5)cn3)cc2c1`, the melting point lay within 267 to 268 °C.

Consider `c1cncc(-c2ccc(C34CCN(CC3)C4)cn2)c1`, for which the melting point was in the range of 228 to 229 °C.

`FC(F)(F)Oc1ccc(-c2ccc(C34CCN(CC3)C4)cn2)cc1`: the melting point lay in the range of 75 to 76 °C. Turning to `c1ccc2sc(-c3ccc(C45CCCN(CCC4)C5)cn3)cc2c1`, the melting point was in the range of 176 to 178 °C. Take `COc1cc(F)ccc1-c1ccc(C23CCN(CC2)C3)cn1`: the melting point was in the range of 169 to 170 °C.

With `c1ccc2c(c1)oc1c(-c3ccc(C45CCCN(CCC4)C5)cn3)cccc12`, the melting point was in the range of 142 to 144 °C. On to `c1cc2c(cc1-c1ccc(C34CCCN(CCC3)C4)cn1)OCO2`, for which the melting point lay within 124 to 126 °C.

Compound `c1cnc2ccc(-c3ccc(C45CCCN(CCC4)C5)cn3)cc2c1` came in with a melting point of 151 to 153 °C. To `Cn1ccc2cc(-c3ccc(C45CCCN(CCC4)C5)cn3)ccc21` belongs 166 to 168 °C; to `c1cc(-c2ccc(C34CCCN(CCC3)C4)cn2)c[nH]1`, 152 to 154 °C; to `Fc1ccc(-c2ccc(C34CCCN(CCC3)C4)cn2)cc1`, 107 to 109 °C. To `c1ncc(-c2ccc(C34CCN(CC3)C4)cn2)cn1` belongs 244 to 246 °C; to `COc1ncc(-c2ccc(C34CCN(CC3)C4)cn2)c(OC)n1`, 104 to 106 °C; to `c1ccc(-c2ccc(-c3ccc(C45CCCN(CCC4)C5)cn3)cc2)cc1`, 146 to 148 °C. As for `c1cc(-c2ccc(C34CCCN(CCC3)C4)cn2)co1`, the melting point was 335 to 337 °C.

`c1cncc(-c2ccc(C34CCCN(CCC3)C4)cn2)c1` gave a melting point of 118 to 120 °C.

`FC(F)(F)Oc1ccc(-c2ccc(C34CCCN(CCC3)C4)cn2)cc1` returned a melting point of 120 to 122 °C. The same measure for `COc1cc(F)ccc1-c1ccc(C23CCCN(CCC2)C3)cn1`: 148 to 150 °C; for `c1ccc2ncc(-c3ccc(C45CCCN(CCC4)C5)cn3)cc2c1`: 160 to 162 °C; for `c1ccc(-c2ccc(-c3ccc(C45CCN(CC4)C5)cn3)cc2)cc1`: 191 to 192 °C. The same measure for `c1cnc2c(-c3ccc(C45CCN(CC4)C5)cn3)cccc2c1`: 176 to 178 °C; for `COc1ccc(-c2ccc(C34CCCN(CCC3)C4)cn2)cc1`: 138 to 139 °C. Take `c1cc2nonc2cc1-c1ccc(C23CCN(CC2)C3)cn1`: the melting point lay within 139 to 140 °C.

`c1nc(N2CCOCC2)ncc1-c1ccc(C23CCN(CC2)C3)cn1`: the melting point lay in the range of 226 to 227 °C. The same measure for `COc1cc(F)cc(-c2ccc(C34CCN(CC3)C4)cn2)c1`: 95 to 97 °C. To `COc1ccc(-c2ccc(C34CCN(CC3)C4)cn2)cc1F` belongs 125 to 126 °C; to `COc1cccc(-c2ccc(C34CCN(CC3)C4)cn2)c1F`, 144 to 146 °C; to `COc1ccc(-c2ccc(C34CCCN(CCC3)C4)cn2)cc1F`, 138 to 140 °C. With `COc1cccc(-c2ccc(C34CCCN(CCC3)C4)cn2)c1F`, the melting point lay within 144 to 146 °C. The same measure for `Cn1cccc1-c1ccc(C23CCCN(CCC2)C3)cn1`: 105 to 107 °C; for `c1cc(-c2ccc(C34CCCN(CCC3)C4)cn2)cc(-n2cccn2)c1`: 135 to 137 °C; for `c1csc(-c2ccc(C34CCN(CC3)C4)cn2)n1`: 127 to 129 °C. The same measure for `c1ncc(-c2ccc(C34CCCN(CCC3)C4)cn2)cn1`: 139 to 141 °C. On to `c1ccc2c(-c3ccc(C45CCCN(CCC4)C5)cn3)cccc2c1`, for which the melting point was in the range of 167 to 169 °C. Consider `c1nc(N2CCOCC2)ncc1-c1ccc(C23CCCN(CCC2)C3)cn1`, for which the melting point fell in the range of 189 to 191 °C.

For `COc1ncc(-c2ccc(C34CCCN(CCC3)C4)cn2)c(OC)n1`, the melting point lay within 81 to 83 °C.

Take `c1cc2nonc2cc1-c1ccc(C23CCCN(CCC2)C3)cn1`: the melting point lay within 151 to 153 °C.

Compound `c1ccc(-c2ccc(C34CCCN(CCC3)C4)cn2)cc1` had a melting point of 103 to 105 °C. To `COc1ccc(OC)c(-c2ccc(C34CCCN(CCC3)C4)cn2)c1` belongs 101 to 103 °C; to `FC(F)(F)c1ccc(-c2ccc(C34CCCN(CCC3)C4)cn2)cc1`, 135 to 137 °C.

`COc1ccncc1-c1ccc(C23CCCN(CCC2)C3)cn1` came in with a melting point of 134 to 136 °C. The compound `c1csc(-c2ccc(C34CCCN(CCC3)C4)cn2)n1` gave a melting point of 124 to 126 °C. Turning to `c1ccc(Oc2ccc(-c3ccc(C45CCCN(CCC4)C5)cn3)cc2)cc1`, the melting point was in the range of 129 to 131 °C.

`Fc1ccccc1-c1ccc(C23CCCN(CCC2)C3)cn1` came in with a melting point of 117 to 119 °C. To `c1cc(N2CCCC2)ncc1-c1ccc(C23CCCN(CCC2)C3)cn1` belongs 301 to 303 °C. The same measure for `CC(C)(C)OC(=O)N1CCN(c2ccc(-c3ccc(C45CCCN(CCC4)C5)cn3)cn2)CC1`: 202 to 204 °C; for `c1ccc2c(-c3ccc(C45CCN(CC4)C5)cn3)cncc2c1`: 143 to 145 °C; for `c1cc(-c2ccc(C34CCN(CC3)C4)cn2)c2ccncc2c1`: 176 to 178 °C. With `c1ccc(-c2ccc(C34CCN(CC3)C4)cn2)cc1`, the melting point is 126 to 128 °C. To `FC(F)(F)c1cc(-c2ccc(C34CCN(CC3)C4)cn2)cc(C(F)(F)F)c1` belongs 117 to 119 °C; to `COc1ccncc1-c1ccc(C23CCN(CC2)C3)cn1`, 97 to 99 °C; to `CC(C)(C)OC(=O)N1CCN(c2ccc(-c3ccc(C45CCN(CC4)C5)cn3)cn2)CC1`, 216 to 218 °C. The same measure for `c1ccc2oc(-c3ccc(C45CCN(CC4)C5)cn3)cc2c1`: 164 to 165 °C; for `Fc1ccc(-c2ccc(C34CCN(CC3)C4)cn2)cn1`: 108 to 109 °C; for `Fc1ncccc1-c1ccc(C23CCCN(CCC2)C3)cn1`: 98 to 99 °C. The same measure for `Fc1ccccc1-c1ccc(C23CCN(CC2)C3)cn1`: 110 to 112 °C; for `COc1ccc(-c2ccc(C34CCN(CC3)C4)cn2)cc1`: 160 to 162 °C; for `c1ccc2cc(-c3ccc(C45CCN(CC4)C5)cn3)ccc2c1`: 154 to 156 °C.

`c1ccc(Oc2ccc(-c3ccc(C45CCN(CC4)C5)cn3)cc2)cc1` returned a melting point of 141 to 143 °C.

Compound `CC(=O)c1cccc(-c2ccc(C34CCCN(CCC3)C4)cn2)c1` (as salt: HBr) registered a melting point of 284 to 285 °C. For the compound `FC(F)(F)c1cccc(-c2ccc(C34CCCN(CCC3)C4)cn2)c1` (as salt: HBr), the melting point lay within 155 to 157 °C. Compound `c1ccc2c(-c3ccc(C45CCCN(CCC4)C5)cn3)cncc2c1` (as salt: HBr) came in with a melting point of 332 to 334 °C.

On to `FC(F)(F)c1cc(-c2ccc(C34CCCN(CCC3)C4)cn2)cc(C(F)(F)F)c1` (as salt: HBr), for which the melting point was in the range of 226 to 228 °C. Take `COc1ccccc1-c1ccc(C23CCCN(CCC2)C3)cn1` (as salt: HBr): the melting point lay within 239 to 241 °C. The same measure for `COc1ccc(-c2ccc(C34CCCN(CCC3)C4)cn2)c(OC)c1` (as salt: HBr): 198 to 200 °C; for `FC(F)(F)Oc1cccc(-c2ccc(C34CCCN(CCC3)C4)cn2)c1` (as salt: HBr): 267 to 269 °C; for `c1cc(-c2ccc(C34CCCN(CCC3)C4)cn2)c2ccncc2c1` (as salt: HBr): 246 to 248 °C.

The compound `COc1ccccc1-c1ccc(C23CCN(CC2)C3)cn1` (as salt: HBr) returned a melting point of 114 to 116 °C. For `COc1ccc(-c2ccc(C34CCN(CC3)C4)cn2)c(OC)c1` (as salt: HBr), the melting point fell in the range of 195 to 197 °C. Compound `COc1ccc(OC)c(-c2ccc(C34CCN(CC3)C4)cn2)c1` (as salt: HBr) gave a melting point of 152 to 154 °C.

`FC(F)(F)c1ccccc1-c1ccc(C23CCN(CC2)C3)cn1` (as salt: HBr) had a melting point of 310 to 312 °C.

As to `Cn1cccc1-c1ccc(C23CCN(CC2)C3)cn1` (as salt: HCl), the melting point is 248 to 250 °C.

For the origin of these results see patent US8759343B2 (priority 2007, dated 2014).
